Data reported in article PMC6749389, “Synthesis and In Vitro Anti-Toxoplasma gondii Activity of Novel Thiazolidin-4-one Derivatives” (Molecules, 2019).
pIC50: −log10 of the molar value.

Columns and labels:
[1] = system: T. gondii tachyzoites (RH strain); assay: In vitro anti-T. gondii activity, [3H]-uracil incorporation assay in infected Hs27 cells; assay type: cell-based, Toxoplasma gondii; details: for pIC50: Toxoplasma gondii, T. gondii RH tachyzoites proliferation in Hs27 cells, na = not active in the tested concentration range; for SR (selectivity ratio): ratio of CC50 (L929) to IC50 (T. gondii); for inhibition of proliferation, fold better than sulfadiazine + trimethoprim (5:1): relative to sulfadiazine + trimethoprim (5:1); for inhibition of proliferation, fold better (lower IC50) than sulfadiazine: relative to sulfadiazine
[2] = Cytotoxic assay (MTT, ISO 10993-5:2009(E)), 24 h treatment; assay type: cell-based; details: L929 mouse fibroblast cells, L929 mouse fibroblasts, values above highest tested concentration extrapolated
Experimental: The L929 mouse fibroblast (ATTC® CCL-1™, Manassas, VA, USA) were culturing according to the ATCC product sheet. […] The cell viability assay were performed precisely according to international standards (ISO 10993-5:2009(E)), using the tetrazolium salt [3-(4,5-dimethylthiazol-2-yl)-2,5-diphenyltetrazolium bromide] (MTT, Sigma-Aldrich) and mouse fibroblasts L929 cells. Cells (1 × 10^4 per well) were treated 24 h with compounds or drug in different concentration range. The optical density at 570 nm on the ELISA reader (Multiskan EX, Labsystems, Vienna, VA, USA), was read. The results were expressed as a percentage of viability compared to untreated cells. […] The CC30/CC50 represents the concentration of tested compounds or drugs that was required for 30% or 50% cells proliferation inhibition in vitro. According to the previously mentioned ISO 10993-5:2009(E) norm, the CC30 value is recognized as non-cytotoxic concentration for the cell line. All experiments were performed in triplicate.

Compound | melting point | pIC50 [1] | SR (selectivity ratio) [1] | CC50 at 24 h [2] | inhibition of proliferation, fold better than sulfadiazine + trimethoprim (5:1) [1] | inhibition of proliferation, fold better (lower IC50) than sulfadiazine [1]
O=C(O)CC1SC(=NN=Cc2cccc(O)c2)N(c2ccc(Cl)cc2)C1=O (stereo not drawn) [Compound 82, [3-(4-Chlorophenyl)-2-{[(3-hydroxyphenyl)methylidene]hydrazinylidene}-4-oxo-1,3-thiazolidin-5-yl]acetic acid] | 226 to 228 °C | 3.58 | 2.49 | 656 µM | – | –
O=C(O)CC1SC(=NN=Cc2ccc(O)c(Br)c2)N(c2ccc(Cl)cc2)C1=O (stereo not drawn) [Compound 87, [2-{[(3-Bromo-4-hydroxyphenyl)methylidene]hydrazinylidene}-3-(4-chlorophenyl)-4-oxo-1,3-thiazolidin-5-yl]acetic acid] | 254 to 255 °C | 3.94 | 3.66 | 425 µM | – | about 90 fold
COc1cc(C=NN=C2SC(CC(=O)O)C(=O)N2c2ccc(Cl)cc2)ccc1O (stereo not drawn) [Compound 84, [3-(4-Chlorophenyl)-2-{[(4-hydroxy-3-methoxyphenyl)methylidene]hydrazinylidene}-4-oxo-1,3-thiazolidin-5-yl]acetic acid] | 254 to 256 °C | 3.66 | 3.76 | 827 µM | – | –
CCOc1cc(C=NN=C2SC(CC(=O)O)C(=O)N2c2ccc(Cl)cc2)ccc1O (stereo not drawn) [Compound 85] | 224 to 226 °C | 3.78 | 4.59 | 759 µM | – | –
O=C(O)CC1SC(=NN=Cc2ccc(O)c(Cl)c2)N(c2ccc(Cl)cc2)C1=O (stereo not drawn) [Compound 86, [2-{[(3-Chloro-4-hydroxyphenyl)methylidene]hydrazinylidene}-3-(4-chlorophenyl)-4-oxo-1,3-thiazolidin-5-yl]acetic acid] | 256 to 257 °C | 3.75 | ≥5.63 | ≥ 1000 µM | – | –
O=C(O)CC1SC(=NN=Cc2cccc(O)c2)N(c2ccccc2)C1=O (stereo not drawn) [Compound 75, [2-{[(3-Hydroxyphenyl)methylidene]hydrazinylidene}-4-oxo-3-phenyl-1,3-thiazolidin-5-yl]acetic acid] | 214 to 216 °C | – | – | ≥ 1000 µM | – | –
O=C1CSC(=NN=Cc2cccc(O)c2)N1c1ccc(Cl)cc1 [Compound 58, 3-(4-Chlorophenyl)-2-{[(3-hydroxyphenyl)methylidene]hydrazinylidene}-1,3-thiazolidin-4-one] | 230 to 232 °C | – | – | 173 µM | – | –
O=C(O)CC1SC(=NN=Cc2ccc(O)cc2)N(c2ccc(Cl)cc2)C1=O (stereo not drawn) [Compound 83, [3-(4-Chlorophenyl)-2-{[(4-hydroxyphenyl)methylidene]hydrazinylidene}-4-oxo-1,3-thiazolidin-5-yl]acetic acid] | 234 to 235 °C | 3.57 | 3.34 | 906 µM | – | –
O=C(O)CC1SC(=NN=Cc2ccc(O)c(Cl)c2)N(c2ccccc2)C1=O (stereo not drawn) [Compound 79, [2-{[(3-Chloro-4-hydroxyphenyl)methylidene]hydrazinylidene}-4-oxo-3-phenyl-1,3-thiazolidin-5-yl]acetic acid] | 244 to 246 °C | – | – | ≥ 1000 µM | – | –
O=C1CSC(=NN=Cc2cccc(O)c2)N1c1ccc(F)cc1 [Compound 68, 3-(4-Fluorophenyl)-2-{[(3-hydroxyphenyl)methylidene]hydrazinylidene}-1,3-thiazolidin-4-one] | 204 to 206 °C | – | – | 180 µM | – | –
COc1cc(C=NN=C2SC(CC(=O)O)C(=O)N2c2ccc(Cl)cc2Cl)ccc1O (stereo not drawn) [Compound 88, [3-(2,4-Dichlorophenyl)-2-{[(4-hydroxy-3-methoxyphenyl)methylidene]hydrazinylidene}-4-oxo-1,3-thiazolidin-5-yl]acetic acid] | 226 to 228 °C | 3.89 | 4.37 | 566 µM | – | about 90 fold
Nc1ccc(S(=O)(=O)Nc2ncccn2)cc1 [Sulfadiazine, 4-amino-N-(2-pyrimidinyl)benzenesulfonamide, reference compound] | – | 1.96 | ≥0.92 | ≥ 10000 µM | – | –
O=C(O)CC1SC(=NN=Cc2ccccc2O)N(c2ccccc2)C1=O (stereo not drawn) [Compound 74, [2-{[(2-Hydroxyphenyl)methylidene]hydrazinylidene}-4-oxo-3-phenyl-1,3-thiazolidin-5-yl]acetic acid] | 228 to 230 °C | – | – | 501 µM | – | –

More lines, main results first:

melting point | Compound | pIC50 [1] | SR (selectivity ratio) [1] | CC50 at 24 h [2] | inhibition of proliferation, fold better than sulfadiazine + trimethoprim (5:1) [1] | inhibition of proliferation, fold better (lower IC50) than sulfadiazine [1]
210 to 212 °C | COC(=O)C=C1SC(=NN=Cc2ccc(O)c(OC)c2)N(c2ccccc2)C1=O [Compound 92, Methyl [2-{[(4-hydroxy-3-methoxyphenyl)methylidene]hydrazinylidene}-4-oxo-3-phenyl-1,3-thiazolidin-5-ylidene]acetate] | 3.74 | 2.69 | 486 µM | – | –
236 to 238 °C | COC(=O)C=C1SC(=NN=Cc2ccc(O)c(Br)c2)N(c2ccccc2)C1=O [Compound 95, Methyl [2-{[(3-bromo-4-hydroxyphenyl)methylidene]hydrazinylidene}-4-oxo-3-phenyl-1,3-thiazolidin-5-ylidene]acetate] | 4.55 | 15.11 | 428 µM | 18 fold | –
238 to 240 °C | COC(=O)C=C1SC(=NN=Cc2ccc(O)c(Cl)c2)N(c2ccccc2)C1=O [Compound 94, Methyl [2-{[(3-chloro-4-hydroxyphenyl)methylidene]hydrazinylidene}-4-oxo-3-phenyl-1,3-thiazolidin-5-ylidene]acetate] | 4.56 | 17.07 | 474 µM | 18 fold | –
224 to 226 °C | CCOc1cc(C=NN=C2SC(CC(=O)O)C(=O)N2c2ccccc2)ccc1O (stereo not drawn) [Compound 78, [2-{[(3-Ethoxy-4-hydroxyphenyl)methylidene]hydrazinylidene}-4-oxo-3-phenyl-1,3-thiazolidin-5-yl]acetic acid] | – | – | ≥ 1000 µM | – | –
190 to 192 °C | CCOc1cc(C=NN=C2SC(=CC(=O)OC)C(=O)N2c2ccccc2)ccc1O [Compound 93, Methyl [2-{[(3-ethoxy-4-hydroxyphenyl)methylidene]hydrazinylidene}-4-oxo-3-phenyl-1,3-thiazolidin-5-ylidene]acetate] | 3.72 | 2.42 | 463 µM | – | –
222 to 224 °C | COC(=O)C=C1SC(=NN=Cc2ccc(O)cc2)N(c2ccccc2)C1=O [Compound 91, Methyl [2-{[(4-hydroxyphenyl)methylidene]hydrazinylidene}-4-oxo-3-phenyl-1,3-thiazolidin-5-ylidene]acetate] | 4.03 | 5.31 | 493 µM | – | –
236 to 238 °C | COC(=O)C=C1SC(=NN=Cc2cccc(O)c2)N(c2ccccc2)C1=O [Compound 90, Methyl [2-{[(3-hydroxyphenyl)methylidene]hydrazinylidene}-4-oxo-3-phenyl-1,3-thiazolidin-5-ylidene]acetate] | – | – | 234 µM | – | –
